Source: patent publication US20060058379A1, “Connexin 26 inhibitor and cancer metastasis inhibitors” (priority 2002, published 2006)
Entries after “also recorded” stand apart in the source; their conditions may differ.

What was measured:
[1] = target: T1, connexin 26 (Rattus norvegicus, UniProt P21994); test: Dye-transfer assay (GJIC) in HeLa-Cx26 cells; type: cell-based; settings: HeLa-Cx26, calcein/DiI dye transfer, FIG. 1
T1 construct: expressed in transfected cells; host or cells: HeLa (human cervical carcinoma) subclone HeLa-Cx26
Description: The connexin 26 inhibitory activity can be evaluated with dye-transfer assay, for example. Specifically, a gap junction level (GJIC score) against the connexin 26 is used for evaluation (c.f. Japanese Laid-Open Patent Publication No. 17184/2001, “Tokukai 2001-17184, publication date: Jan. 23, 2001, and M. Mensil et al. Cancer Res. Vol 55, 629-639 1995.).
With this method, labelling dye, which can be transferred to outside of cells only through the gap junctions, is introduced into cells. Then the cells are smeared on a monolayer culture or a tissue culture. […]
GJIC score can be calculated as described in following examples. That is, if no dye-coupling occurs with respect to the donor cells, “0” is scored; “1” is scored if dye-coupling from the donor cell to an adjacent receptive cell occurs; and “2” is scored if dye-coupling from the donor cell to a second adjacent cell occurs. In this manner, when dye-coupling to n^th adjacent cell from the donor cell occurs, “n” (an integer) is scored. […]
(§1) Cells containing the gap junction-impermeable DiI (red fluorescence) were identified as donor cells. […]
The level of gap junction cell-to-cell communication (GJIC) was scored by the following methods. […]

[2] = target: T2, connexin 43 (Rattus norvegicus, UniProt P08050); test: Dye-transfer assay (GJIC) in HeLa-Cx43 cells; type: cell-based; settings: HeLa-Cx43, calcein/DiI dye transfer, FIG. 1
T2 construct: contained a cDNA fragment of an entire coding region of rat Cx43; expressed in transfected cells; host or cells: HeLa cells stably transfected with pCX4bsr-Cx43 (clone HeLa-Cx43)
T2 sequence (P08050 2-382): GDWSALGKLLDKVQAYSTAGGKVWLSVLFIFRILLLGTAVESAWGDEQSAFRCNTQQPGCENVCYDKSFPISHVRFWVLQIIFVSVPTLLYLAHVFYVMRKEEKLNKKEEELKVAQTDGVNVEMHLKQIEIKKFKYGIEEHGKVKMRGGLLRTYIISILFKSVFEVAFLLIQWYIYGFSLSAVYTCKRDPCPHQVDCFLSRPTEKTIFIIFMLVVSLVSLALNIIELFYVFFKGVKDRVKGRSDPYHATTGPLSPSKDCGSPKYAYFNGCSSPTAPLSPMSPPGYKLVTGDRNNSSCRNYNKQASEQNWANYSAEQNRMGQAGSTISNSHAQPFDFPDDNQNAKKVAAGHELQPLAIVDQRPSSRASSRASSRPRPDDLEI
Description: A pCX4bsr vector was derived from the pCXbsr vector (T Akagi., et al., 2000, Proc. Natl. Acad. Sci. USA) with minor modification. The pCX4bsr vector was kindly given by Dr. T Akagi (Osaka Bioscience Institute, Osaka, Japan). The pBluescriptII SK+plasmid vector contained a cDNA fragment of an entire coding region of rat Cx43 between the Spel and ClaI sites, and was constructed previously (Y. Omori., et al., 1998, Int. J. Cancer). The Cx43cDNA was excised by digesting NotI and HincII, and being ligated with the pCX4bsr where NotI and HincII were digested. HeLa cells were transfected with the resulting pCX4bsr-Cx43 vector by using the TransFast transfection regent. […]
as §1
The level of gap junction cell-to-cell communication (GJIC) was scored by the following methods.
Donor cells were scored as 0 for no dye-coupling, as 1 for dye-coupling from a donor cell to an adjacent recipient cell, and as 2 or 3 when calcein transferred to the adjacent recipient cell further transfers to a second or a third adjacent cell, subsequently, in a direction away from the donor cell. […] The experiments were repeated three times and mean and standard deviation of score counts were calculated for each factor. […]

[3] = system: BL6 cells (substrains of B16 mouse melanoma cells); test: Cancer metastasis inhibitory action test 2: spontaneous lung metastasis after subcutaneous BL6 inoculation; type: in vivo; settings: C57B1/6 mice, counted four weeks after dismembering
Protocol: After subcutaneously inoculating 1×10^5 BL6 cells (substrains of B16 mouse melanoma cells) to a planter of each C57B1/6 mouse, the mice were classified into three groups. • 1) Control mice (Nt) with no treatment but transplanting […]; • 2) Oleamide (25 mg/kg/day) administration group: peritoneal injection of olive oil 0.2 ml dissolved with oleamide at concentration of 25 mg/kg/day once a day on consecutive days; and • 3) MI-18 (10 mg/kg/day) administration group: olive oil 0.2 ml dissolved with MI-18 at concentration of 10 mg/kg/day once a day on consecutive days.
The mice were treated in the above manners every day after the BL6 cells inoculation. Then, on about 18th day, tumors (about eight mm radical) formed at the injected points were removed by dismembering at knee joints. Then the mice were treated in the above manners for another two days after the dismembering. After that, mice were fed without the treatments. At four weeks after dismembering at the knee joints, the mice were euthanized, and metastasized tubercles in both left and right lungs (the number of focuses) were counted visually (refer to FIG. 2 (a) through (c) and FIG. 3). Cancer metastasis inhibitory action was evaluated using 15 mice for each group. […] Therefore, these materials are highly safe. […]

[4] = Death of mice due to causes other than cancer under daily administration (Example 5); type: in vivo, mouse; settings: C57B1/6 mice, approximately two months, FIG. 5
[5] = system: BL6 cells (substrains of B16 mouse melanoma cells); test: Cancer metastasis inhibitory action test 1: spontaneous lung metastasis after subcutaneous BL6 inoculation; type: in vivo; settings: C57B1/6 mice; for metastasized tubercles in lungs (number of foci) vs vehicle group: counted four weeks after dismembering
Protocol: The mice were treated in the above manners on consecutive days after the BL6 cells inoculation. Then, on about 18th day, tumors (about six mm in diameter) formed at inoculation points were removed by dismembering at knee joints. Then the mice were treated in the above manners for another two days after the dismembering. After that, the mice were fed without the treatments. At four weeks after the dismembering at the knee joints, the mice were euthanized, and metastasized tubercles in both left and right lungs (the number of focuses) were counted visually (refer to FIG. 2 (a) through (c) and FIG. 3). Cancer metastasis inhibitory action was evaluated using 10 mice for each group.

Structure (SMILES)	inhibitory activity against connexin 26 (gap junction dye-coupling) [1]	inhibitory activity against connexin 43 (gap junction dye-coupling) [2]	metastasized tubercles in lungs (number of foci) vs untreated group ([3]; 10 mg/kg/day once a day)	death of mice due to causes other than cancer ([4]; 10 mg/kg/day every day)	metastasized tubercles in lungs (number of foci) vs vehicle group ([5]; 25 mg/kg/day peritoneal injection twice a day)	metastasized tubercles in lungs (number of foci) vs vehicle group ([5]; 50 mg/kg/day twice a day)	metastasized tubercles in lungs (number of foci) ([5]; 500 mg/kg/day, FIG. 2 (d))	metastasized tubercles in lungs (number of foci) vs untreated group ([3]; 25 mg/kg/day peritoneal injection once a day)	death of mice due to causes other than cancer ([4]; 25 mg/kg/day every day, 25 mg/kg/day)
CCCCCCCC[C@H]1O[C@H]1CCCCCCCC(N)=O (relative stereo) [MI-18, 8-[(2S*3R*)-3-octyloxirane-2-yl]octanamide]	exhibits inhibitory activity	specifically inhibits only connexin 26	fewer metastasized tubercles and significantly exhibited cancer metastasis inhibitory activity	no mice died due to other causes but cancer					
CCCCCCCC/C=C\CCCCCCCC(N)=O [oleamide, 9(Z)-Octadecenamide]	exhibited inhibitory action; also recorded: exhibits inhibitory activity	exhibited inhibitory action			fewer metastasized tubercles and significantly exhibited cancer metastasis inhibitory action	fewer metastasized tubercles and significantly exhibited cancer metastasis inhibitory action	the similar result was obtained	fewer metastasized tubercles and significantly exhibited cancer metastasis inhibitory activity	death rates due to causes other than cancer were low; also recorded: no mice died due to other causes but cancer
